Test results reported in patent US8815921B2, “Active substance combination based on trifluorobutinyl compounds and exhibiting nematicidal and insecticidal properties” (priority 2003, dated 2014).
Several values for one entry are separate records, joined by “and”; a condition that tells them apart may be missing. Equal entries are not always repeated.

Columns and labels:
Type in all cases: in vivo
[1] = tested on: caterpillars of the army worm (Spodoptera frugiperda); experiment: Spodoptera frugiperda Test
Procedure: (§1) To produce a suitable preparation of active compound, 1 part by weight of active compound is mixed with the stated amounts of solvent and emulsifier, and the concentrate is diluted with emulsifier containing water to the desired concentration.
Cabbage leaves (Brassica oleracea) are treated by being dipped into the preparation of active compound of the desired concentration and are populated with caterpillars of the army worm (Spodoptera frugiperda) while the leaves are still moist. After the desired period of time, the kill in percent is determined. 100% means that all caterpillars have been killed; 0% means that none of the caterpillars has been killed. The kill rates determined are inserted into Colby's formula (see sheet 34).

[2] = tested on: larvae of the mustard beetle (Phaedon cochleariae); experiment: Phaedon-Larvae Test; conditions: cabbage leaf dip
Procedure: as §1
Cabbage leaves (Brassica oleracea) are treated by being dipped into the preparation of active compound of the desired concentration and are populated with larvae of the mustard beetle (Phaedon cochleariae) while the leaves are still moist. After the desired period of time, the kill in percent is determined. 100% means that all beetle larvae have been killed; 0% means that none of the beetle larvae has been killed. The kill rates determined are inserted into Colby's formula (see sheet 34).

[3] = tested on: green peach aphid (Myzus persicae); experiment: Myzus Test
Procedure: as §1
Cabbage leaves (Brassica oleracea), which are heavily infested by the green peach aphid (Myzus persicae) are treated by being dipped into the preparation of active compound of the desired concentration. After the desired period of time, the kill in % is determined. 100% means that all aphids have been killed; 0% means that none of the aphids has been killed. The kill rates determined are inserted into Colby's formula (see sheet 1).

[4] = tested on: caterpillars of the diamondback moth (Plutella xylostella, sensitive strain); experiment: Plutella Test, sensitive strain; conditions: for Kill rate [%] after 6 days: 20 ppm
Procedure: as §1
Cabbage leaves (Brassica oleracea) are treated by being dipped into the preparation of active compound of the desired concentration and are populated with caterpillars of the diamondback moth (Plutella xylostella, sensitive strain) while the leaves are still moist. After the desired period of time, the kill in percent is determined. 100% means that all caterpillars have been killed; 0% means that none of the caterpillars has been killed. The kill rates determined are inserted into Colby's formula (see sheet 34).

N#Cc1nn(-c2c(Cl)cc(C(F)(F)F)cc2Cl)c(N)c1[S+]([O-])C(F)(F)F (stereo not drawn) [fipronil]
Kill rate [%] after 6 days ([1]; 0.8 ppm): 0%

CN/C(=N\[N+](=O)[O-])NCc1cnc(Cl)s1 [clothianidin]
Kill rate [%] after 3 days ([1]; 4 ppm): 85% | Kill rate [%] after 3 days ([2]; 4 ppm): 15%

CCOC(=O)OC1=C(c2cc(C)ccc2C)C(=O)NC12CCC(OC)CC2 (stereo not drawn) [(IIA), carboxylic acid, 3-(2,5-dimethylphenyl)-8-methoxy-2-oxo-1-azaspiro[4.5]dec-3-en-4-yl ethyl ester, (9Cl)]
Kill rate [%] after 6 days ([1]; 100 ppm): 30% | Kill rate [%] after 6 days ([3]; 4 ppm): 55% | Kill rate [%] after 3 days ([4]; 4 ppm): 95%

CCOP(=S)(Oc1cnc(C(C)(C)C)nc1)OC(C)C (stereo not drawn) [tebupirimfos]
Kill rate [%] after 6 days ([1]; 0.8 ppm): 0% | Kill rate [%] after 6 days ([3]; 20 ppm): 35% | Kill rate [%] after 3 days ([4]; 0.8 ppm): 0%

O=[N+]([O-])NC1=NCCN1Cc1ccc(Cl)nc1 [imidacloprid]
Kill rate [%] after 3 days ([2]; 20 ppm): 45% | Kill rate [%] after 6 days [4]: 5%

spinosad
Kill rate [%] after 3 days ([1]; 0.16 ppm): 60%

O=S(=O)(CCC(F)=C(F)F)c1ncc(Cl)s1 [(IC)]
Kill rate [%] after 3 days ([1]; 500 ppm, cabbage leaf dip): 0% | Kill rate [%] after 6 days ([1]; 500 ppm): 20% | Kill rate [%] after 1 day ([3]; 100 ppm, cabbage leaf dip): 0% | Kill rate [%] after 6 days ([3]; 100 ppm): 0% | Kill rate [%] after 3 days ([2]; 500 ppm): 0% | Kill rate [%] after 3 days ([4]; 500 ppm, cabbage leaf dip): 0% and 5%

CNC(=O)O/N=C/C(C)(C)SC [aldicarb]
Kill rate [%] after 3 days ([2]; 20 ppm): 35% | Kill rate [%] after 6 days [4]: 0%

Cc1c(F)c(F)c(COC(=O)[C@@H]2[C@H](/C=C(\Cl)C(F)(F)F)C2(C)C)c(F)c1F (racemic) [tefluthrin]
Kill rate [%] after 3 days ([1]; 0.8 ppm): 40% | Kill rate [%] after 1 day ([3]; 4 ppm): 0% | Kill rate [%] after 3 days ([2]; 4 ppm): 75% | Kill rate [%] after 3 days ([4]; 0.16 ppm): 20%
